Consider two molecules from BindingDB's records for doi:10.1016/s0960-894x(01)00044-0 (Novartis Institute For Medical Sciences, 2001).

One assay concerns the target Substance-P receptor (Cavia porcellus, UniProt P30547). Kind of assay: ChEBML_205410. From the text:
In vitro binding affinity against Tachykinin receptor 1 in guinea pig ileum using organ bath assay

The nature of assay [1]: In vitro binding affinity against Tachykinin receptor 1 in rabbit whole brain membranes using [3H][Sar9Met(O2)]-SP binding assay.

Substance-P receptor, sequence (P30547 whole entry): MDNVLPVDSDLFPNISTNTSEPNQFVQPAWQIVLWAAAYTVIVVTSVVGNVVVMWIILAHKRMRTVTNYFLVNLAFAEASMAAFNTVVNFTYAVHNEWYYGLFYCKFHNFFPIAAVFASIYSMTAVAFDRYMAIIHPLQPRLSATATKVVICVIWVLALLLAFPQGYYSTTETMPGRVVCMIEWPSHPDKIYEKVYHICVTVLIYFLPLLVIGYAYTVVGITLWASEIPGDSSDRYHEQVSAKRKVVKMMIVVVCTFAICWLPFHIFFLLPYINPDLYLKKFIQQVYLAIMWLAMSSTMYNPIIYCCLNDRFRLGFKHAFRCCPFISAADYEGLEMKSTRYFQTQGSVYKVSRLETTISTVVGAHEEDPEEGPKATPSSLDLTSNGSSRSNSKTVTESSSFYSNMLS

Consider `CSCCNS(=O)(=O)c1ccc(NNC(=S)N2CCCC2C(=O)NCc2ccccc2)c([N+](=O)[O-])c1` (configuration not stated), for which the IC50 – broadly, the midpoint of a concentration-inhibition curve – against Substance-P receptor was over 100 µM. Molecule `CSCCNS(=O)(=O)c1ccc(NNC(=S)N2CCCC2C(=O)NC(c2ccccc2)c2ccccc2)c([N+](=O)[O-])c1` (configuration not stated) yielded an IC50 in assay [1] of over 50 µM.
